Columns and labels:
[1] = target: T1, complex II/SDH-dependent activity in NeuTL cells (Mus musculus, UniProt Q8K2B3+Q9CQA3+Q9CXV1+Q9CZB0); assay: MTT reduction assay of complex II/SDH activity in whole cells; assay type: cell-based, murine
T1 construct: For specifically measuring complex II activity in whole cells; endogenous in cells; host or cells: NeuTL murine breast cancer cells
Description: MTT assay. MTT solutions were prepared immediately before use by dissolving 2.5 mg/ml 3-(4,5-dimethyl[…] (MTT) (Sigma) in PBS alone or phenol red-free RPMI medium containing 20 mM succinic acid, pH 7.4. Stock solutions of 3-nitropropionic acid (3NPA) in ethanol, thenoyltrifluoroacetone (TTFA) in DMSO, 3-BP in PBS, α-TOS in DMSO, and MitoQ (Alleva et al, 2003, James et al, 2005) in ethanol were prepared. The drugs were tested on NeuTL cells cultured in exponential growth phase in 96-well microtitre plates using 4-8 replicate wells per dilution assayed. To assess the ability of MitoQ to restore MTT reduction, cells were pre-incubated for 60 min with 2 or 5 μM MitoQ. Final concentrations of ethanol or DMSO in cultures were ≦0.1%. Treated and control cells were allowed to reduce MTT to blue formazan crystals for 2 or 4 h at 37° C. and 5% CO2. After incubation, culture supernatants were removed except for 30 μl, before the formazan crystals were solubilized by addition of 150 μl DMSO, and absorbance values were measured at 570 nm using a Fluorostar Optima plate reader.
To this end, the present inventors investigated whether α-TOS interferes with UbQ binding in complex II. For specifically measuring complex II activity in whole cells, a short-term (1-2 h) assay was used based on the reduction of the tetrazolium salt, MTT (Maehara et al, 1988). […] For this, oxidative respiration of murine NeuTL breast cancer cells was sustained on high levels of succinate (20 mM), thereby promoting the SDH activity of complex II (Maehara et al, 1988). The cells were then assayed within 1-2 h for their ability to enzymatically reduce MTT, which under conditions of high succinate becomes a specific indicator of complex II/SDH-dependent activity (Maehara et al, 1988, Berridge and Tan, 1993).

[2] = target: T2, SDH/Complex II, isolated rat liver mitochondria (Rattus norvegicus, UniProt P21913+Q641Z9+Q6PCT8); assay: SDH/Complex II activity, DCIP/PMS assay; assay type: biochemical; conditions: 100 or 300 μM α-TOS; compared to control
T2 construct: Rat liver mitochondria were prepared by differential centrifugation; from tissue; host or cells: rat liver mitochondria / sub-mitochondrial particles
Description: Preparation of sub-mitochondrial particles (SMPs) from isolated rat liver. Rat liver mitochondria were prepared by differential centrifugation according to the modified method of Rice and Lindsay, 1997. 2 ml of mitochondrial pellet were resuspended in 15 ml of 20 mM KH2 PO4 pH 7.4 and sonicated at a setting of 80 Watt for 3×15 s. The sonicated solution was then centrifuged at 6,500×g for 7 min. The supernatant fraction was kept on ice and the remaining pellet resuspended and sonicated again. The sonicated solution was centrifuged as before and the supernatant removed from the second centrifugation step combined with that from the first centrifrugation. The combined supernatant was recentrifitged at 108,000×g for 1 h. The pellet of SMPs was resuspended in 5 ml of 20 mM KH2PO4 pH 7.4 and stored frozen at −20° C. until used.
Measurement of mitochondrial complex II and complex I activity. A time course for the reduction of the complex II substrate 2,6-dichlorophenol indophenol (DCIP) by the mitochondrial preparations was followed by measuring the absorbance at 600 nm in 1 cm cuvettes containing a 1 ml reaction volume (ε600=21×10^3 M^−1cm^−1). The reaction components included NADH, 0.5 mM; succinate, 5 mM; KCN, 10 mM; DCIP, 50 μM; PMS, 50 μM. […] The change in absorbance of DCIP was measured using a spectrophotometer (UVIKON XL, Secomam) and replicate samples were assayed (n=3). […]

T1 sequence (Q8K2B3 43-664): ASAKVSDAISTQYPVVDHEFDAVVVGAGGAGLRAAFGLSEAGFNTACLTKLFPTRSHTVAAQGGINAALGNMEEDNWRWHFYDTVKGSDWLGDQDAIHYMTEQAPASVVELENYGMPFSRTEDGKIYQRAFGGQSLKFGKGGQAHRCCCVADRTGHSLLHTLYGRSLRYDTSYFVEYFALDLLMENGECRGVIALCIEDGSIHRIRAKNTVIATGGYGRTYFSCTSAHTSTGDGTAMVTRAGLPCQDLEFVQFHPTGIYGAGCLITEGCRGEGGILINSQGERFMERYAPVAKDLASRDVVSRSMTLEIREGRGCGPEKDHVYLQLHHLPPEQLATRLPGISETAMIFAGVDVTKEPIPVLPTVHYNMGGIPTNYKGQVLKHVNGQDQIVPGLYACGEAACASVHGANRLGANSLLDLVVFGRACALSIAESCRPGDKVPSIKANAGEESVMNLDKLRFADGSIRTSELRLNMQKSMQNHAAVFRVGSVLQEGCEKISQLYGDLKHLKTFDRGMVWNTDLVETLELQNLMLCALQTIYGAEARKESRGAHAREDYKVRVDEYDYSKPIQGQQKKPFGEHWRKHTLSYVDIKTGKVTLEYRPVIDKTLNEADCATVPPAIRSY
T1 sequence (Q9CQA3 31-282): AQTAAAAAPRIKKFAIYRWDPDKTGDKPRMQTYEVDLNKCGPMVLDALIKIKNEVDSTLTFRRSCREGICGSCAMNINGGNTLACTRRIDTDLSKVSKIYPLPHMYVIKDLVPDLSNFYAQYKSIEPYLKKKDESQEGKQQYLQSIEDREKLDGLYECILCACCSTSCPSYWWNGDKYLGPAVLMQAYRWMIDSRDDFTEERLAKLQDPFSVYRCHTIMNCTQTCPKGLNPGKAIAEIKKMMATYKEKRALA
T1 sequence (Q9CZB0 30-169): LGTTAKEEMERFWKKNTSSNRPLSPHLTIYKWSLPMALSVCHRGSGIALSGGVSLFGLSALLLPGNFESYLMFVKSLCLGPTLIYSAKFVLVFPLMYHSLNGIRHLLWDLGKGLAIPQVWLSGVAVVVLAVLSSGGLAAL
T1 sequence (Q9CXV1 57-159): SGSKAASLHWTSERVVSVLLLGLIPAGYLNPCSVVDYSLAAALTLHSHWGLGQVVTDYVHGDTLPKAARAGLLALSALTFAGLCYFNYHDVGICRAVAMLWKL
T2 sequence (P21913 31-282): as the sequence (Q9CQA3 31-282) above, with K13T, T24A, E34K, V55I, S94G, D197E, V212L counted along it
T2 sequence (Q641Z9 30-169 limits assumed): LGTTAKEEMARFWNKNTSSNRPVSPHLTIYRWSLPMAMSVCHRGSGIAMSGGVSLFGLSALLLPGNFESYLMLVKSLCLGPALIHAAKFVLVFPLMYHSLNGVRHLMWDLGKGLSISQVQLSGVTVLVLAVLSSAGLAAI
T2 sequence (Q6PCT8 57-159): as the sequence (Q9CXV1 57-159) above, with L51I, T63A, P65Q, A68T, R69K, L75V counted along it
T2 sequence (Q920L2 35-656 partner): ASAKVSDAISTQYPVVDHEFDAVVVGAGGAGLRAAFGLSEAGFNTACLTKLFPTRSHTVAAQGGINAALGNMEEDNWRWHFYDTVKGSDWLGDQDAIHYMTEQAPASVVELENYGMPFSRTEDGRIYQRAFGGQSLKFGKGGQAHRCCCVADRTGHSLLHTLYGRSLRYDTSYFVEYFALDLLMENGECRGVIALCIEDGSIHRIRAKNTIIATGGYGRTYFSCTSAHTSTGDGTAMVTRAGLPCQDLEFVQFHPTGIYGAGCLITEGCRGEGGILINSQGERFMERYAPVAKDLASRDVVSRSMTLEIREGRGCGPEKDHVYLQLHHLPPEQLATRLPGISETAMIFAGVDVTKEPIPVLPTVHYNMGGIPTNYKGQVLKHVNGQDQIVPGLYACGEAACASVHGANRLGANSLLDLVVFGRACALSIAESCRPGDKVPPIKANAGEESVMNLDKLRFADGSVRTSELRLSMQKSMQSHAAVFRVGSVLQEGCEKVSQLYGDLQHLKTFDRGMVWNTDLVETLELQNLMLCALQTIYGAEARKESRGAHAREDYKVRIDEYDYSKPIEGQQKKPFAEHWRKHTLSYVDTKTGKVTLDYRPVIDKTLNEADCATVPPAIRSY

Cc1c(C)c2c(c(C)c1OC(=O)CCC(=O)O)CC[C@@](C)(CCC[C@H](C)CCC[C@H](C)CCCC(C)C)O2 [Compound 1, α-tocopheryl succinate]
inhibition of MTT reduction after MitoQ pre-incubation ([1]; cells pre-incubated 1 h with MitoQ): significantly overcome by pre-incubation of the cells with MitoQ
enzymatic reduction of MTT ([1]; within a few hours of treatment): significant decreases occurring in the levels of MTT reduction
rate of reduction of DCIP (SDH/Complex II activity) [2]: decreased rapidly and significantly after treatment with α-TOS

From patent US8410056B2, “Pro-oxidant anti-cancer compounds” (priority 2006, dated 2013)
